Numbering of substitutions follows the chain as printed. Several values for one entry are separate records, joined by “and”; a condition that tells them apart may be missing. Identical values can stand only once. Like-named read-outs stand apart in the source and are kept apart here.
Tests used:
[1] = target: T1, Human Type I 5'-Deiodinase (Homo sapiens, UniProt P49895); test: Kinetics of rT3 deiodination, enzyme transiently expressed in COS-7 cells; type: biochemical
T1 construct: expressed in transfected cells; host or cells: COS-7 cells (cell sonicate)
T1 sequence (P49895 1-249): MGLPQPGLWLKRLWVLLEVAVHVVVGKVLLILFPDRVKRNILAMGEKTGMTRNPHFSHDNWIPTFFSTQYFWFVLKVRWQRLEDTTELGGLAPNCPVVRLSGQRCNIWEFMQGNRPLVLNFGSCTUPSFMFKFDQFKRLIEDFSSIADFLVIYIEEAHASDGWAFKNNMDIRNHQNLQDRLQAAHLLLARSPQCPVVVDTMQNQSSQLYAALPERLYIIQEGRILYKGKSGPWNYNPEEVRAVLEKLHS
Method: Cell sonicate protein concentration was approximately 12 mg ml^-1 by Biorad determination using gamma globulin as a standard.
Incubations were for 30 minutes at 37° C. and ^125 I was quantitated as previously described (Berry, et al., Mol. Endocrinol. 4:743-748 (1990)).

[2] = target: T2, Type I iodothyronine 5' deiodinase, TGA (selenocysteine-126) (Rattus norvegicus, UniProt P24389); test: Sensitivity to gold thioglucose, wild type (TGA) G21 cDNA, JEG cell sonicates; type: biochemical; settings: for Deiodinase Activity of JEG cell sonicates: 10 mM DTT, 300 nM 125I rT3, 30 min
T2 construct: the full length protein terminates at the UAG codon at nucleotide 778; expressed in transfected cells; host or cells: JEG-3 human choriocarcinoma cells, vector CDM-8 (homogenates, microsomal fractions or sonicates)
T2 sequence (P24389 1-257): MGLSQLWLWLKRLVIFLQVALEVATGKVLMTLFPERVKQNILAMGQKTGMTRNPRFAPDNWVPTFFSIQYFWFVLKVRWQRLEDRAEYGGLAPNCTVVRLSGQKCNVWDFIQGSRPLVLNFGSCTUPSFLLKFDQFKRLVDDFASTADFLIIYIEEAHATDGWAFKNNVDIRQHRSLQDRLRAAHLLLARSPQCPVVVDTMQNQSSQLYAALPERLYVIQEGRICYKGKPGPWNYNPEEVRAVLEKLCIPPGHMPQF
Source text: (§1) Wild type (TGA) or cysteine mutant (TGT) G21 cDNA in CDM-8 was transfected into JEG-3 as described in Example III. […] 1β-D-Thioglucose (5 μm) had no effect on enzyme activity. 1.

rat 5' deiodinase = target: T3, rat 5' deiodinase (Rattus norvegicus, UniProt P24389); test: Affinity labelling with bromoacetyl T3, rat enzyme; type: binding
T3 construct: the full length protein terminates at the UAG codon at nucleotide 778; expressed in transfected cells, vector CDM-8; cell sonicate
T3 sequence (P24389 1-257): T2 sequence (P24389 1-257)
Method: (§2) The final product in 2 ml of acidified 20% ethanol was diluted with 3 volumes of water and purified by chromatography on a column (2.5×0.8cm) of Sephadex LH-20 (Pharmacia). […] Densitometric quantitation of the autoradiographs was performed by a Molecular Dynamics computing densitometer (Sunnyvale, Calif.).

human 5' deiodinase [3] = target: T4, human 5' deiodinase (Homo sapiens, UniProt P49895); test: Affinity labelling with bromoacetyl T3, human enzyme; type: binding; design: expressed in transfected cells; host or cells: COS-7 cells (cell sonicate)
T4 sequence (P49895 1-249): T1 sequence (P49895 1-249)
Method: as §2

Type I 5' deiodinase = target: T5, Type I 5' deiodinase (Rattus norvegicus, UniProt P24389); test: rT3 deiodination by clone G21 enzyme expressed in transfected JEG-3 cells; type: biochemical; settings: for mode of inhibition: rT3 as substrate
T5 construct: the full length protein terminates at the UAG codon at nucleotide 778; expressed in transfected cells; host or cells: JEG-3 human choriocarcinoma cells, vector CDM-8 (homogenates, microsomal fractions or sonicates)
T5 sequence (P24389 1-257): T2 sequence (P24389 1-257)
Source text: To verify that this clone encoded the Type I 5' deiodinase, it was expressed in JEG-3 human choriocarcinoma cells following DNA transfection.
To confirm that this clone encoded Type I 5' deiodinase, it was expressed in JEG-3 human choriocarcinoma cells following DNA transfection.

human 5' deiodinase [4] = target: T4, human 5' deiodinase; settings: with or without 0.5 mM PTU; 100 nM 125I-T4, 25 mM DTT, 16 hours
Method: T4, T3 and I^- were separated by paper chromatography and identified by staining of chromatographed unlabelled standards. The ^125 I content of the products was quantitated by counting the paper strips in a gamma scintillation counter. All assays were performed in duplicate. Kinetic analyses were performed as previously described (Berry, et al., J. Biol. Chem. 266:14155-14158 (1991)) by drawing double reciprocal plots of deiodination rate vs. substrate concentration. […] Since the enzyme is not pure, all kinetic constants are apparent.

[5] = target: T6, Liver Microsomal Human Type I 5'-Deiodinase (Homo sapiens, UniProt P49895); settings: cited from earlier work
T6 construct: those of the human liver microsomal enzyme; from tissue; host or cells: human liver microsomes
T6 sequence (P49895 1-249): T1 sequence (P49895 1-249)

T4 to T3 conversion = settings: cited from earlier work
Type I deiodinase = target: T7, Type I deiodinase (Rattus norvegicus, UniProt P24389); settings: cited from earlier work
T7 sequence (P24389 1-257): T2 sequence (P24389 1-257)

[6] = target: T8, rat 5' deiodinase cysteine mutant (Rattus norvegicus, UniProt P24389, U126C); settings: cited from earlier work
T8 sequence (P24389 1-257 U126C): T2 sequence (P24389 1-257) with U126C

5' deiodinase activity = target: T9, 5' deiodinase activity (Rattus norvegicus, UniProt P24389); settings: rats; cited from earlier work
T9 construct: host or cells: rat, in vivo
T9 sequence (P24389 1-257): T2 sequence (P24389 1-257)

[7] = target: T10, Type I iodothyronine 5' deiodinase, TGT (cysteine-126) mutant (Rattus norvegicus, UniProt P24389, U126C); test: Sensitivity to gold thioglucose, cysteine mutant (TGT) G21 cDNA, JEG cell sonicates; type: biochemical; settings: for Deiodinase Activity of JEG cell sonicates: 10 mM DTT, 300 nM 125I rT3, 30 min
T10 construct: expressed in transfected cells; host or cells: JEG-3 cells, vector CDM-8 (cell sonicate)
T10 sequence (P24389 1-257 U126C): T2 sequence (P24389 1-257) with U126C
Source text: as §1

[8] = PTU 100 μM, read-out: decrease in BrAcT3 labelling

**Q.** For O[C@H](CS)[C@H](O)CS (racemic) [DTT, dithiothreitol], which Kb ([1]; apparent) is on record?
**A.** 5000 µM

**Q.** With OC[C@H]1O[C@@H](S)[C@H](O)[C@@H](O)[C@@H]1O [1β-D-Thioglucose] as the compound, how does the “effect on enzyme activity” value ([2]; 5 μm) read?
**A.** no effect

**Q.** Which results are given for O=C(CBr)NC(Cc1cc(I)c(Oc2ccc(O)c(I)c2)c(I)c1)C(=O)O (centres unmarked) [BrAcT3]?
**A.** BrAcT3 labelling of the ~28 kDa protein (rat 5' deiodinase; excess cold BrAcT3 (364 nM)): inhibited; BrAcT3 labelling of the ~28 kDa protein (human 5' deiodinase [3]; excess cold BrAcT3 (364 nM)): inhibited

**Q.** What does the source list for CCCc1cc(=O)[nH]c(=S)[nH]1 [PTU, propylthiouracil]?
**A.** inhibition at 0.5 µM (Type I 5' deiodinase; 0.5 μM PTU): > 50%; mode of inhibition (Type I 5' deiodinase): competitive inhibitor of DTT; Ki ([1]; Ki (PTU · DTT), competitive with respect to DTT, apparent): 0.014 µM; Ki ([1]; Ki (PTU · rT3), 10 mM DTT, uncompetitive inhibitor of rT3 deiodination, apparent): 0.17 µM; T4 to T3 conversion, sensitivity to PTU (human 5' deiodinase [4]): PTU-sensitive; inhibition at 100 µM (rat 5' deiodinase; [8]): 35 to 40%; Ki ([5]; read-out: Ki (PTU · DTT)): 0.1 µM; Ki ([5]; read-out: Ki (PTU · rT3), 5 mM DTT): 0.28 µM; 131I release from T4 (T4 to T3 conversion; 100 mg, euthyroid subjects): inhibition; T4 to T3 conversion (T4 to T3 conversion; hyperthyroid patients): dose-related inhibition; inhibition at 100 µM (human 5' deiodinase [3]; [8]): 35 to 40%

**Q.** With N[C@@H](Cc1cc(I)c(Oc2cc(I)c(O)c(I)c2)c(I)c1)C(=O)O [T4, thyroxine] as the compound, how does the mode of inhibition (Type I 5' deiodinase) read?
**A.** competitive inhibitor of rT3 deiodination

**Q.** What about the Ki [1] of the same compound?
**A.** 6.2 µM

**Q.** And the inhibition at 30 µM (rat 5' deiodinase; T4 30 μM, read-out: reduction of BrAcT3 labelling)?
**A.** 67%

**Q.** And the “BrAcT3 labelling of the ~28 kDa protein” value (human 5' deiodinase [3]; T4 30 μM)?
**A.** does not inhibit

**Q.** What does the source list for N[C@@H](Cc1ccc(Oc2cc(I)c(O)c(I)c2)c(I)c1)C(=O)O [rT3, 3,3',5'-triiodothyronine]?
**A.** Vmax (rT3) ([1]; 10 mM DTT): 63.2 ± 16.4 pmol/min/mg and 63.2 pmol/min/mg; BrAcT3 labelling of the ~28 kDa protein (rat 5' deiodinase; rT3 3 μM and 10 μM): inhibited; Vmax/Km ratio for rT3 higher than for T4 (Type I deiodinase): 1000 fold; Vmax (rT3) ([5]; 5 mM DTT): 128 to 242 pmol/min/mg; apparent Km of the cysteine mutant higher than wild type [6]: 10 fold; BrAcT3 labelling of the ~28 kDa protein (human 5' deiodinase [3]; rT3 3 μM and 10 μM): inhibited

**Q.** With gold as the compound, how does the “5' deiodinase activity after administration” value (5' deiodinase activity) read?
**A.** Inhibition

**Q.** Which results are given for gold thioglucose [GTG]?
**A.** Inhibition ([2]; GTG 1 nM): 0%; Deiodinase Activity of JEG cell sonicates ([2]; GTG 1 nM): 7.0 pmol rT3 min^-1 mg protein^-1; Inhibition ([2]; GTG 10 nM): 43%; Deiodinase Activity of JEG cell sonicates ([2]; GTG 10 nM): 4.0 pmol rT3 min^-1 mg protein^-1; Inhibition ([2]; GTG 10 nM, listed as gold thioglucose): ~ 50%; Inhibition ([2]; GTG 100 nM): 95%; Deiodinase Activity of JEG cell sonicates ([2]; GTG 100 nM): 0.95 pmol rT3 min^-1 mg protein^-1; sensitivity to inhibition compared with the native enzyme [7]: much less sensitive; Inhibition ([7]; GTG 10 nM): 0%; Deiodinase Activity of JEG cell sonicates ([7]; GTG 10 nM): 1.3 pmol rT3 min^-1 mg protein^-1; Inhibition ([7]; GTG 100 nM): 13%; Deiodinase Activity of JEG cell sonicates ([7]; GTG 100 nM): 1.1 pmol rT3 min^-1 mg protein^-1; Ki ([1]; read-out: Ki (GTG · rT3), 10 mM DTT, competitive, apparent): 0.0047 µM; BrAcT3 labelling of the ~28 kDa protein (rat 5' deiodinase; 100 nM gold thioglucose): inhibited; BrAcT3 labelling of the ~28 kDa protein (human 5' deiodinase [3]; 100 nM gold thioglucose): inhibited

Source: US5272078A, “CDNA encoding the type I iodothyronine 5'deiodinase” (Brigham and Women's Hospital, priority 1992, dated 1993)
